# From patent US10709704B2, “Treating neural disease with tyrosine kinase inhibitors” (GEORGETOWN UNIVERSITY, priority 2012, dated 2020)
# Experiments:
# [1] = tested on: mice injected with lentiviral α-synuclein into the substantia nigra; test: Rotarod, lentiviral α-Synuclein mice; format: in vivo, mouse
# Text: Mice were placed on an accelerating rotarod (Columbus Instruments) equipped with individual timers for each mouse. […] All values were converted to % control.
# [2] = tested on: autophagic vacuoles and lysosomes; test: Subcellular fractionation and ELISA, lentiviral Tau±Aβ1-42 mice; format: in vivo, mouse
# Experimental: Brain tissues were fractionated to isolate AVs and human specific ELISA was performed to determine Aβ1-42 contents. […] It was also observed that autophagic clearance is parkin-dependent.
# Brain tissues were fractionated to isolate AVs and mouse specific ELISA was performed to determine protein contents.
# (§1) Brain tissues were fractionated to isolate AVs and human specific ELISA was performed to determine protein contents.
# (§2) 0.5 g of Frozen human or animal brains were homogenized at low speed (Cole-Palmer homogenizer, LabGen 7, 115 Vac) in 1×STEN buffer and centrifuged at 1,000 g for 10 minutes to isolate the supernatant from the pellet. The pellet was re-suspended in 1×STEN buffer and centrifuged once to increase the recovery of lysosomes. The pooled supernatants were then centrifuged at 100,000 rpm for 1 hour at 4° C. to extract the pellet containing autophagic vacuoles (AVs) and lysosomes. The pellet was then re-suspended in 10 ml (0.33 g/ml) 50% Metrizamide and 10 ml in cellulose nitrate tubes. A discontinuous Metrizamide gradient was constructed in layers from bottom to top as follows: 6 ml of pellet suspension, 10 ml of 26%; 5 ml of 24%; 5 ml of 20%; and 5 ml of 10% Metrizamide (Marzella et al., 1982). After centrifugation at 10,000 rpm for 1 hour at 4° C., the fraction floating on the 10% layer (Lysosome) and the fractions banding at the 24%/20% (AV 20) and the 20%/10% (AV10) Metrizamide inter-phases were collected by a syringe and examined.
# (§3) Animal brains were homogenized at low speed (Cole-Palmer homogenizer, LabGen 7, 115 Vac) in 1×STEN buffer and centrifuged at 1,000 g for 10 minutes to isolate the supernatant from the pellet. The pellet was re-suspended in 1×STEN buffer and centrifuged once to increase the recovery of lysosomes. The pooled supernatants were then centrifuged at 100.000 rpm for 1 hour at […] to extract the pellet containing autophagic vacuoles (AVs) and lysosomes. The pellet was then re-suspended in 10 ml (0.33 g/ml) 50% Metrizamide and 10 ml in cellulose nitrate tubes. […]
# [3] = tested on: Aβ1-42 plaques and intracellular Aβ1-42; test: Plaque and intracellular Aβ1-42 staining, lentiviral Aβ1-42 wild type mice; format: in vivo, mouse
# Experimental: (§4) Immunohistochemistry was performed on 20 micron-thick 4% paraformaldehyde (PFA) fixed cortical brain sections. Aβ1-42 was probed (1:200) with rabbit polyclonal specific anti-Aβ1-42 antibody (Zymed) that recognizes a.a.1-42, and (1:200) mouse monoclonal antibody (4G8) that recognizes amino acid 17-24 (Covance) and counterstained with DAPI. Parkin was immunoprobed (1:200) with mouse anti-parkin (PRK8) antibody that recognizes amino acid 399-465 (Signet Labs, Dedham, Mass.) and rabbit polyclonal (1:200) anti-parkin (AB5112) antibody that recognizes amino acid 305-622 (Millipore) and counterstained with DAPI. Mouse monoclonal (6E10) antibody (1:100) with DAB were used (Covance) and thioflavin-S was performed according to manufacturer's instructions (Sigma).
# (§5) Stereological methods were applied by a blinded investigator using unbiased stereology analysis (Stereologer, Systems Planning and Analysis, Chester, Md.) as described in (20,36).
# GFP-tagged TDP-43 = test: Distribution of GFP-tagged TDP-43 in M17 cells; format: cell-based, human; parameters: distribution of GFP-tagged TDP-43 / translocation of GFP-tagged TDP-43 with Nilotinib or Bosutinib: unit of the concentration uncertain; details: Nilotinib (10 µM) or Bosutinib (5 µM) for additional 24 hrs
# Experimental: Human neuroblastoma M17 cells (seeding density 2×10^5 cells) were grown in 24 well dishes (Falcon) to 70% confluence in Dulbecco's Modified Eagle Medium (DMEM; Invitrogen) plus 10% (v/v) heat-inactivated fetal bovine serum (Invitrogen), penicillin/streptomycin, and 2 mM L-glutamine at 37° C. and 5% CO2, washed twice in phosphate-buffered saline (PBS). Transient transfection was performed with 3 μg parkin cDNA or 3 μg TDP-43 cDNA, or 3 μg LacZ cDNA. Cells were treated with 5 μM tubacin for 24 hours and DAPI stained in 12 well dishes. Cells were harvested 24 hours after transfection. Transfection was performed in DMEM without serum using Lipofectamine 2000 (Invitrogen) according to the manufacturer's protocol. […] Western blot was performed on NuPAGE 4-12% Bis-Tris gel (Invitrogen). Protein estimation was performed using the microscale BioRad protein assay (BioRad Laboratories Inc, Hercules, Calif., USA).
# To ascertain that both parkin and HDAC6 are required for TDP-43 translocation, GFP-tagged TDP-43 was expressed in M17 neuroblastoma cells in the presence of wild type or loss-of-function mutant (T240R) parkin, and treated with 5 μM selective HDAC6 inhibitor for 24 hours.
# The following data support these conclusions.
# [4] = tested on: autophagic vacuoles and lysosomes; test: Subcellular fractionation and ELISA, lentiviral Aβ1-42 mice; format: in vivo, mouse
# Experimental: Histograms show Aβ1-42 in subcellular fractions, including autophagic vacuole-10 (AV-10; phagophores+autophagosomes), AV-20 (autophagosomes) and lysosomes. […] Brain tissues were fractionated to isolate AVs and human specific ELISA was performed to determine protein contents. […] N=5 animals per treatment.
# as §1, §2, §3
# [5] = tested on: Aβ1-42 plaques and intracellular Aβ1-42; test: Plaque and intracellular Aβ1-42 staining, lentiviral Aβ1-42 parkin−/− mice; format: in vivo, mouse
# Experimental: as §4, §5
# [6] = lentiviral Aβ1-42 mice, IP 10 mg/kg Nilotinib or 5 mg/Kg Bosutinib daily 3 weeks
smiles,measurement,setting,value
Cc1cn(-c2cc(NC(=O)c3ccc(C)c(Nc4nccc(-c5cccnc5)n4)c3)cc(C(F)(F)F)c2)cn1 [Nilotinib],rotarod motor performance,[1]; lentiviral α-Synuclein mice + Nilotinib (DMSO 39%),86 % of LacZ level
same,motor performance (rotarod),"[1]; lentiviral α-synuclein mice, 10 mg/kg Nilotinib or 5 mg/Kg Bosutinib",improved motor performance
same,"autophagic clearance of p-Tau ser 396, human specific ELISA","[2]; lentiviral Tau±Aβ1-42 mice, 10 mg/kg Nilotinib or 5 mg/Kg Bosutinib daily 3 weeks",enhances autophagic clearance
same,autophagic clearance of Aβ1-42 (deposition in AV-20 and lysosome),"[2]; lentiviral Tau±Aβ1-42 mice, IP 10 mg/kg Nilotinib daily 3 weeks",enhances autophagic clearance
same,"autophagic clearance of p-Tau ser 396, mouse specific ELISA","[2]; lentiviral human Tau±Aβ1-42 mice, IP 10 mg/kg Nilotinib daily 3 weeks",enhances autophagic clearance
same,plaque size,[3]; Aβ1-42 wild type mice + Nilotinib (DMSO around 48 μm),5 μm
same,plaque formation,"[3]; Aβ1-42 wild type mice, Nilotinib daily for 3 weeks",eliminates plaque formation
same,Aβ1-42 positive cells (stereological counting),"[3]; Aβ1-42 wild type mice, Nilotinib treated",5200 cells
same,intracellular Aβ1-42 accumulation (cortex),"[3]; lentiviral Aβ1-42 injected mice, Nilotinib",eliminated Aβ1-42 accumulation
same,distribution of GFP-tagged TDP-43,GFP-tagged TDP-43,translocation of GFP-tagged TDP-43 from nucleus (A) into the cytosol
same,autophagic clearance of Aβ1-42 (deposition in AV-20 and lysosome),[4]; [6],enhances autophagic clearance
same,autophagic clearance of p-Tau ser 396 (deposition in AV-20 and lysosome),[4]; [6],enhances autophagic clearance
same,autophagic clearance of Aβ1-42 (deposition in AV-20 and lysosomes),"[4]; wild type or Tau−/− mice, lentiviral Aβ1-42, 10 mg/kg Nilotinib or 5 mg/Kg Bosutinib daily 3 weeks",enhances autophagic clearance
same,plaque size,[5]; Aβ1-42 parkin−/− mice + Nilotinib (DMSO 85 μm),79 μm
same,Aβ1-42 positive cells (stereological counting),[5]; Aβ1-42 parkin−/− mice + Nilotinib (DMSO N=14566),13250
same,plaque load,"[5]; Aβ1-42 parkin−/− mice, Nilotinib",did not reduce plaque load
